Measured values: the METLIN SMRT retention time set (Domingo-Almenara et al. 2019)

Experiment: gradient 5% acetonitrile 3 min, to 50% in 2 min, to 85% in 15 min, held 3 min, 100 µL/min
Details: column: Zorbax Extend-C18 2.1 x 50 mm; eluents: water / acetonitrile, 0.1% formic acid
Method in brief: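 Retention times of pure standards were taken from adduct peaks that were selected by computer and manually inspected. Over 3 months, mixtures of ~100 molecules were run by HPLC–quadrupole time-of-flight mass spectrometry in positive and negative ionization mode. The Zorbax Extend-C18 column (2.1 × 50 mm, 1.8 μm) ran at 100 μL/min in water and acetonitrile, each containing 0.1% formic acid, with 40 μL dead volume and 900 μL dwell volume.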

CCN1C(=O)c2ccccc2Oc2ccc(C(=O)NCc3cccs3)cc21
RP-LC retention time: 911 s

COc1ccc(C2Cn3nnc(-c4nc(-c5ccccc5F)no4)c3CO2)cc1 (stereo not given)
RP-LC retention time: 1090 s

CCOC(=O)c1c(C)[nH]c(CCC(=O)NCCc2c[nH]c3ccc(OC)cc23)c1C
RP-LC retention time: 837 s

COc1cccc(-n2c(CN3CCN(c4ccccn4)CC3)nc3ccc([N+](=O)[O-])cc3c2=O)c1
RP-LC retention time: 647 s

O=C(Cn1c(=O)c2cc(C3CC3)nn2c2ncccc21)Nc1ccc(F)cc1F
RP-LC retention time: 779 s

CCN1CCN(S(=O)(=O)c2cc(-c3nnc(-c4ccccc4)o3)ccc2OC)CC1
RP-LC retention time: 636 s

Cn1cc2c3c(cccc31)CN(C(=O)Nc1ccc(Cl)cc1F)CC2
RP-LC retention time: 1250 s

Cc1ccc(NC(=O)N(C)CC2CCOC2)cc1 (stereo not given)
RP-LC retention time: 667 s

CN(C)C(=O)[C@H](O)[C@H](Cc1ccccc1)NC(=O)c1cc2cc(Cl)ccc2[nH]1
RP-LC retention time: 956 s

COCCn1c(SCc2ccccc2Cl)nc2cc(C(=O)NC(C)C)ccc2c1=O
RP-LC retention time: 1010 s

O=C(COc1ccccc1F)NC1CC(=O)N(C2CC2)C1 (stereo not given)
RP-LC retention time: 611 s

Cc1ccc(N2CN(CC(=O)Nc3cccc(Cl)c3)S(=O)(=O)c3cccnc32)cc1
RP-LC retention time: 1030 s

Cc1cc(-c2csc(S(=O)(=O)NCCCN3CCN(C)CC3)c2)on1
RP-LC retention time: 580 s

COc1cc(-c2nnc(COc3ccc(Cl)cc3Cl)o2)cc(OC)c1OC
RP-LC retention time: 994 s

O=[N+]([O-])c1ccccc1OCC(O)CN1CCN(c2ccccc2F)CC1 (stereo not given)
RP-LC retention time: 577 s

Cc1noc(-c2ccc(OC3CN(C(=O)NC(C)C)C3)cc2)n1
RP-LC retention time: 730 s

O=C(c1ccsc1)N1CCCN(c2cc(-c3ccc4c(c3)OCO4)[nH]n2)CC1
RP-LC retention time: 616 s

CC(NC(=O)c1ccc(OC(F)(F)F)cc1)C(=O)N1CCN(c2ccccn2)CC1 (stereo not given)
RP-LC retention time: 643 s

COc1cnc(SC)nc1Nc1ccc(C#N)cc1
RP-LC retention time: 853 s

O=C(NCc1cccc(Cl)c1)C1CCCN(c2nc3ccsc3c(=O)n2Cc2ccccc2)C1 (stereo not given)
RP-LC retention time: 988 s

COC(=O)c1ccc(NC(=O)C(=O)NCc2ccccn2)cc1
RP-LC retention time: 592 s

COCCNS(=O)(=O)c1cc(-c2cc(C(F)(F)F)on2)sc1C
RP-LC retention time: 982 s

CCOC(=O)c1nn(-c2ccccc2)c(=O)cc1NCc1ccccn1
RP-LC retention time: 649 s

CCn1cnc(S(=O)(=O)N2CCC(C(=O)Nc3ccc(OC)c(Cl)c3)CC2)c1
RP-LC retention time: 724 s

CCc1noc(-c2cccnc2N2CCCN(Cc3ccc(Br)cc3)CC2)n1
RP-LC retention time: 730 s

CCOC(=O)c1cnc(N2CCN(c3ccc(OC)cc3)CC2)c2ccccc12
RP-LC retention time: 1080 s

CCc1nnc2nc(N3CCN(C(=O)c4ccc5c(c4)OCO5)CC3)cc(C)n12
RP-LC retention time: 611 s

CCN(CC)S(=O)(=O)c1cc(-c2nnc(-c3ccc(C)cc3)o2)ccc1Cl
RP-LC retention time: 1190 s

COc1ccc2c(c1)C1(CCN(C(=O)c3cccc(C)c3)C1)C(=O)N2C (stereo not given)
RP-LC retention time: 823 s

O=C(COc1ccc(Cl)cc1)Nc1ccc2c(c1)N(C(=O)c1ccco1)CCC2
RP-LC retention time: 948 s

Cc1noc(C)c1CN1CCCC(C)(c2nc(-c3ccccc3)no2)C1 (stereo not given)
RP-LC retention time: 623 s

O=c1ccc(N2CCC(NS(=O)(=O)c3cccnc3)C2)nn1CCOc1ccccc1 (stereo not given)
RP-LC retention time: 738 s

Cc1csc(NC(=O)Cn2nc3c(cc2=O)CCCC3)n1
RP-LC retention time: 683 s

COc1ccc(-c2noc(-c3nn(-c4ccc(C)cc4)ccc3=O)n2)cc1OC
RP-LC retention time: 827 s

Cc1cc(F)ccc1NC(=O)C1CCCN(S(=O)(=O)c2c[nH]c(C(=O)N3CCCCCC3)c2)C1 (stereo not given)
RP-LC retention time: 857 s

Cc1cc(C)n(-c2nc(CC(=O)Nc3ccc(N(C)C)cc3)cs2)n1
RP-LC retention time: 650 s

COc1ccc(CNc2nc3ccncc3n(Cc3ccccc3)c2=O)cc1
RP-LC retention time: 710 s

CCCn1cnc2cc(CNC(=O)COc3ccc(Cl)cc3C)ccc21
RP-LC retention time: 692 s

O=C(Nc1ccc(F)cc1)N1CCC(CCOc2ccncc2)CC1
RP-LC retention time: 616 s

O=C(NCCc1c[nH]c2ccccc12)C(=O)NCC(c1ccco1)N1CCOCC1 (stereo not given)
RP-LC retention time: 582 s

CCOc1ccc(CCNC(=O)c2sc(-c3cccn3CC)nc2C)cc1OCC
RP-LC retention time: 1140 s

Cc1c(Cl)cccc1S(=O)(=O)NCC(O)c1ccc(C(F)(F)F)cc1 (stereo not given)
RP-LC retention time: 938 s

Cc1cc(C)n2nc(SCC(=O)NCCc3ccc(Cl)cc3)nc2n1
RP-LC retention time: 719 s

O=C(NC1CCCC1)c1ccc2ccnc(N3CCN(c4ccc(Cl)cc4)CC3)c2c1
RP-LC retention time: 890 s

COc1ccc(-c2nnc(-c3ccc(Cl)c(S(=O)(=O)N4CCCCC4)c3)o2)cc1OC
RP-LC retention time: 1070 s

CCCN1C(=O)COc2ccc(-c3noc(COc4ccccc4)n3)cc21
RP-LC retention time: 1100 s

COc1ccc(-n2c(C)nc3ccc(NC(=O)C4CC4)cc3c2=O)cc1
RP-LC retention time: 683 s

COc1cc(C(C)=O)ccc1OCCCN1CCC(c2noc3cc(F)ccc23)CC1
RP-LC retention time: 720 s

CCCNC(=O)N1CC(c2nc(-c3ccccc3)no2)C2(CCOCC2)C1 (stereo not given)
RP-LC retention time: 770 s

CCCc1ccc(S(=O)(=O)N2CCCC2c2nc(-c3ccc(F)cc3)no2)cc1 (stereo not given)
RP-LC retention time: 1270 s

CCCn1cc(C(=O)NC(C)CC)c2nn(-c3ccccc3)c(=O)c-2c1 (stereo not given)
RP-LC retention time: 880 s

O=C(c1ccc2cc[nH]c2c1)N1CCN(c2cc(-c3cccs3)[nH]n2)CC1
RP-LC retention time: 747 s

COc1cc(CC(=O)N2CCN(c3cc(C)n4cnnc4n3)CC2)cc(OC)c1
RP-LC retention time: 607 s

CN(C)C(CNC(=O)c1cc(=O)c2ccccc2o1)c1ccccc1Cl (stereo not given)
RP-LC retention time: 650 s

CCN1CCN(Cc2nc(-c3ccc(N4CCSCC4)nc3)no2)CC1
RP-LC retention time: 604 s

COc1ccc(N2CC(c3nc(-c4cccc(OC)c4OC)no3)CC2=O)cc1 (stereo not given)
RP-LC retention time: 870 s

COCCN1CCC(N2CCN(S(=O)(=O)c3cccc(Br)c3)CC2)C1=O (stereo not given)
RP-LC retention time: 612 s

Cc1ccc(-c2nc3ncccn3c2Nc2c(C)cccc2C)cc1
RP-LC retention time: 820 s

COC(=O)c1nnn(-c2cccc(C)c2C)c1C(=O)OC
RP-LC retention time: 878 s

COc1ccccc1CNC(=O)C1CCCN1S(=O)(=O)c1cc2c(cc1C)NC(=O)CO2 (stereo not given)
RP-LC retention time: 764 s

Cc1ccc(-c2nc3nc(C)cc(C)n3c2Nc2ccc(Cl)cc2)cc1
RP-LC retention time: 786 s

COc1ccccc1-c1nnc(-c2cc(S(=O)(=O)N3CCCC3)ccc2Cl)o1
RP-LC retention time: 951 s

CCOCCCNC(=O)c1c(OCC)cc(=O)n2c1CCCCC2
RP-LC retention time: 621 s

Cc1ccc(NC(=O)N2CCC(C(C)C(=O)Nc3cc(F)ccc3F)CC2)cc1 (stereo not given)
RP-LC retention time: 653 s

Cc1cccc(Nc2c(-c3ccc(O)cc3)nc3ncccn23)c1
RP-LC retention time: 700 s

Clc1cc2c(c(CN3CCN(c4ccccc4)CC3)c1)OCOC2
RP-LC retention time: 584 s

COc1ccc(-c2nnc(COc3cccc(NC(=O)CNC(=O)Cc4ccccc4)c3)o2)cc1
RP-LC retention time: 816 s

O=C(Nc1cc(Cl)ccc1F)C1CCCN(c2nnc3ccccn23)C1 (stereo not given)
RP-LC retention time: 649 s

Cc1nnc2cc(N3CCN(Cc4csc5c4CCCC5)CC3)cnn12
RP-LC retention time: 589 s

CC1(C(=O)NCc2ccc(F)cc2)CCCN(C(=O)Nc2cccc(Br)c2)C1 (stereo not given)
RP-LC retention time: 1030 s

CCn1nc(CNC(=O)c2cccs2)c2ccccc21
RP-LC retention time: 798 s

COCCn1nc2n(c1=O)CCN(C(=O)c1ccco1)CC2
RP-LC retention time: 585 s

O=C1C2N=NN(Cc3nc(-c4ccc(Br)cc4)no3)C2C(=O)N1c1ccccc1 (stereo not given)
RP-LC retention time: 1030 s

O=C(Nc1cc(F)ccc1F)NC1CCN(c2cc(N3CCCC3)cnn2)C1 (stereo not given)
RP-LC retention time: 681 s

CCCCn1nnc(NCc2ccc(-c3cc(Cl)ccc3Cl)o2)n1
RP-LC retention time: 1220 s

Cc1sc2ccn(CC(C)C)c(=O)c2c1C(=O)O
RP-LC retention time: 863 s

O=C1CC(/C=C/c2ccccc2)Cc2nc(N3CCN(c4ncccn4)CC3)ncc21 (stereo not given)
RP-LC retention time: 1130 s

CCCCOc1ccc(C(=O)N(Cc2ccc(Br)o2)C2CCS(=O)(=O)C2)cc1 (stereo not given)
RP-LC retention time: 1090 s

Cc1cc(C)n(-c2ccnc(N3CCC(C(=O)NC4CCCC4)CC3)n2)n1
RP-LC retention time: 786 s

COc1ccc(NC(=O)Cn2nc3nc(N4CCCCC4C)ccn3c2=O)cc1 (stereo not given)
RP-LC retention time: 755 s

CN1c2ccccc2Oc2nnc(N3CCN(c4ccccn4)CC3)cc21
RP-LC retention time: 550 s

CC1CCN(S(=O)(=O)c2ccc(-c3nnc(C(C)C)o3)o2)CC1
RP-LC retention time: 964 s

Cc1c(C(=O)NCC(C)C)c(C)n2cnn(CC(=O)NCCc3ccccc3)c(=O)c12
RP-LC retention time: 743 s

Cc1nc(-c2noc(-c3cccc(F)c3)n2)cn1CC(=O)Nc1ccc(F)cc1
RP-LC retention time: 874 s

Fc1cc(F)cc(-c2nnc(Cc3nc(-c4ccc(Br)cc4)no3)o2)c1
RP-LC retention time: 1150 s

Cc1cc(N2CCCC2)n2nc(CN3CCN(c4ccccc4C)CC3)nc2n1
RP-LC retention time: 1210 s

CC(NC(=O)c1ccc(F)c(F)c1)C(=O)Nc1nc2ccccc2[nH]1 (stereo not given)
RP-LC retention time: 655 s

O=C([C@@H]1C[C@H](F)CN1S(=O)(=O)c1ccccc1F)N1CCCCC1
RP-LC retention time: 743 s

O=C(C1CCCO1)N1CCN(c2nc(CN3CCCCC3)cs2)CC1 (stereo not given)
RP-LC retention time: 579 s

CC(=O)OC1CCN(C(=O)NC(C)(C)C)CC1
RP-LC retention time: 696 s
